Experimental data: PubChem BioAssay AID264 (DTP/NCI, 2004)
Where “and” joins values, the source holds several entries; their conditions need not be identical. Equal values may be shown once. Inconclusive results are not listed.

System: nude mice, LX-1 lung xenograft intrarenal, tumor weight T/C
Experiment: NCI In Vivo Anticancer Drug Screen. Data for tumor model Human Lung LX-1 Xenograft (intrarenal inoculation) in NU/NU Swiss (nude) mice
Settings: endpoint: mean tumor weight change, higher = larger tumour
Summary of the method: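 In vivo, transplantable tumor; compound vs vehicle arms; tumor size measured; value = T/C.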

[1] = dose: 150.0 mg/kg/injection, schedule: Q04DX003 (sc), vehicle: suspension in saline
[2] = dose: 200.0 mg/kg/injection, schedule: Q04DX003 (sc), vehicle: saline
[3] = dose: 25.0 mg/kg/injection, schedule: Q01DX010 (sc), vehicle: saline
[4] = dose: 50.0 mg/kg/injection, schedule: Q01DX010 (sc), vehicle: saline
[5] = dose: 100.0 mg/kg/injection, schedule: Q04DX003 (sc), vehicle: saline with Tween-80
[6] = dose: 200.0 mg/kg/injection, schedule: Q04DX003 (sc), vehicle: saline with Tween-80
[7] = dose: 800.0 mg/kg/injection, schedule: Q04DX003 (sc), vehicle: saline with Tween-80
[8] = dose: 300.0 mg/kg/injection, schedule: Q04DX003 (sc), vehicle: Klucel (hydroxypropylcellulose) (HPC)
[9] = dose: 1200.0 mg/kg/injection, schedule: Q04DX003 (sc), vehicle: saline with Tween-80
[10] = dose: 600.0 mg/kg/injection, schedule: Q04DX003 (sc), vehicle: Klucel (hydroxypropylcellulose) (HPC)
[11] = dose: 1200.0 mg/kg/injection, schedule: Q04DX003 (sc), vehicle: Klucel (hydroxypropylcellulose) (HPC)
[12] = dose: 2400.0 mg/kg/injection, schedule: Q04DX003 (sc), vehicle: Klucel (hydroxypropylcellulose) (HPC)
[13] = dose: 100.0 mg/kg/injection, schedule: Q01DX010 (sc), vehicle: saline
[14] = dose: 200.0 mg/kg/injection, schedule: Q01DX010 (sc), vehicle: saline

For `CC(=O)OCC1OC(OC(C)=O)C(NC(=O)N(CCCl)N=O)C(OC(C)=O)C1OC(C)=O` (stereo not drawn), the T/C (dose: 12.0 mg/kg/injection, schedule: Q04DX003 (sc), vehicle: Klucel (hydroxypropylcellulose) (HPC)) was 36 % of control and the T/C (dose: 24.0 mg/kg/injection, schedule: Q04DX003 (sc), vehicle: Klucel (hydroxypropylcellulose) (HPC)) was 25 % of control.
For `CCC(C(=O)O)C(=O)O.[NH2-].[NH2-].[Pt+2]`, the T/C (dose: 37.5 mg/kg/injection, schedule: Q04DX003 (sc), vehicle: saline) was 110 % of control, the T/C (dose: 75.0 mg/kg/injection, schedule: Q04DX003 (sc), vehicle: suspension in saline) was 54 % of control and the T/C (dose: 100.0 mg/kg/injection, schedule: Q04DX003 (sc), vehicle: saline) was 92 % of control. For the same compound, the T/C (dose: 100.0 mg/kg/injection, schedule: Q04DX003 (sc), vehicle: suspension in saline) was 46 % of control, the T/C [1] was 40 % of control and the T/C [2] was 76 % of control. The T/C (dose: 200.0 mg/kg/injection, schedule: Q04DX003 (sc), vehicle: suspension in saline) was 27 % of control.
With `Nc1ncnc2c1ncn2C1OC(CO)C(O)C1O` (stereo not drawn) the T/C [3] was 156 % of control, the T/C [4] was 97 % of control and the T/C [2] was 102 % of control. For the same compound, the T/C (dose: 400.0 mg/kg/injection, schedule: Q04DX003 (sc), vehicle: saline) was 20 % of control, the T/C (dose: 800.0 mg/kg/injection, schedule: Q04DX003 (sc), vehicle: saline) was 117 % of control and the T/C (dose: 1600.0 mg/kg/injection, schedule: Q04DX003 (sc), vehicle: saline) was 70 % of control.
For `CCCCCCCCCCCC(=O)NC1CC(O[C@H]2C[C@](O)(C(=O)CO)Cc3c(O)c4c(c(O)c32)C(=O)c2c(OC)cccc2C4=O)OC(C)C1O` (stereo partly drawn), the T/C (dose: 300.0 mg/kg/injection, schedule: Q04DX003 (sc), vehicle: water) was 5 % of control, the T/C (dose: 600.0 mg/kg/injection, schedule: Q04DX003 (sc), vehicle: water) was 76 % of control and the T/C (dose: 1200.0 mg/kg/injection, schedule: Q04DX003 (sc), vehicle: water) was 55 % of control. The T/C (dose: 2400.0 mg/kg/injection, schedule: Q04DX003 (sc), vehicle: water) was 118 % of control.
For `COc1cc2c[n+](C)c3c4cc5c(cc4ccc3c2cc1OC)OCO5`, the T/C [5] was 157 % of control, the T/C [6] was 92 % of control and the T/C [7] was 109 % of control.
In the case of `N/C(=N\OC(=O)Nc1ccc(CSc2ccc(Cl)cc2)o1)c1ccccn1`, the T/C (dose: 75.0 mg/kg/injection, schedule: Q04DX003 (sc), vehicle: Klucel (hydroxypropylcellulose) (HPC)) is reported as 69 % of control, the T/C (dose: 150.0 mg/kg/injection, schedule: Q04DX003 (sc), vehicle: Klucel (hydroxypropylcellulose) (HPC)) is reported as 66 % of control and the T/C [8] is reported as 180 % of control.
`CC1CCC(NC(=O)N(CCCl)N=O)CC1` (stereo not drawn) was tested, and the T/C (dose: 6.25 mg/kg/injection, schedule: Q01DX010 (sc), vehicle: Klucel (hydroxypropylcellulose) (HPC)) was 34 % of control and the T/C (dose: 12.5 mg/kg/injection, schedule: Q01DX010 (sc), vehicle: Klucel (hydroxypropylcellulose) (HPC)) was 5 % of control.
For `CS(=O)(=O)CS(=O)(=O)OCCCl`, the T/C [1] was 94 % of control.
`CCOC(=O)[C@]1(Br)CC[C@@]1(Br)C(=O)OCC` was tested, and the T/C [7] was 107 % of control and the T/C [9] was 123 % of control.
With `O=C1SC(c2ccccc2)=S=C1c1ccccc1` the T/C (dose: 600.0 mg/kg/injection, schedule: Q04DX003 (sc), vehicle: saline with Tween-80) was 224 % of control, the T/C [9] was 78 % of control and the T/C (dose: 2400.0 mg/kg/injection, schedule: Q04DX003 (sc), vehicle: saline with Tween-80) was 88 % of control.
`C=C1N(C)c2ccccc2C1(C)C` was tested, and the T/C (dose: 50.0 mg/kg/injection, schedule: Q04DX003 (sc), vehicle: saline with Tween-80) was 80 % of control and the T/C [5] was 76 % of control.
For `C[C@]12C=CC(=O)C=C1CC[C@@H]1[C@@H]2C(=O)C[C@@]2(C)[C@H]1CC[C@]2(O)C(=O)CO`, the T/C [8] was 50 % of control, the T/C [10] was 56 % of control and the T/C [11] was 47 % of control. For the same compound, the T/C [12] was 35 % of control.
For `CO[C@H]1C[C@@H]2CC[C@@H](C)[C@@](O)(O2)C(=O)C(=O)N2CCCC[C@H]2C(=O)O[C@H]([C@H](C)C[C@@H]2CC[C@@H](O)[C@H](OC)C2)CC(=O)[C@H](C)C=C(C)[C@@H](O)[C@@H](OC)C(=O)[C@H](C)C[C@H](C)/C=C/C=C/C=C1C`, the T/C (dose: 100.0 mg/kg/injection, schedule: Q01DX010 (sc), vehicle: saline with Tween-80) was 72 % of control, the T/C (dose: 200.0 mg/kg/injection, schedule: Q01DX010 (sc), vehicle: saline with Tween-80) was 47 % of control and the T/C (dose: 400.0 mg/kg/injection, schedule: Q01DX010 (sc), vehicle: saline with Tween-80) was 37 % of control. The T/C (dose: 800.0 mg/kg/injection, schedule: Q01DX010 (sc), vehicle: saline with Tween-80) was 69 % of control.
In the case of `COc1cc2cc3c4cc(OC)c(OC)cc4cc[n+]3c(C)c2cc1OC` (tested in a mixture with another compound), the T/C [4] is reported as 118 % of control and the T/C [13] is reported as 46 % of control.
`CC1(C)OC(=O)N(CO)C1=O` was tested, and the T/C [3] was 51 % of control, the T/C [13] was 116 % of control and the T/C [14] was 110 % of control.
`Nc1nc2c(C(=O)N3CCCC3)nnn2c2ccccc12` was tested, and the T/C (dose: 150.0 mg/kg/injection, schedule: Q04DX003 (sc), vehicle: saline with Tween-80) was 55 % of control.
In the case of `O=Cc1ccc(O)c(O)c1`, the T/C [5] is reported as 172 % of control, the T/C [6] is reported as 100 % of control and the T/C (dose: 400.0 mg/kg/injection, schedule: Q04DX003 (sc), vehicle: saline with Tween-80) is reported as 86 % of control. For the same compound, the T/C [7] was 73 % of control.
In the case of `COC1=C2C[C@@H](C)C[C@@H](OC)[C@@H](O)[C@H](C)/C=C(\C)[C@@H](OC(N)=O)[C@H](OC)/C=C\C=C(/C)C(=O)NC(=CC1=O)C2=O`, the T/C (dose: 1.0 mg/kg/injection, schedule: Q04DX003 (sc), vehicle: saline) is reported as 77 % of control, the T/C (dose: 2.0 mg/kg/injection, schedule: Q04DX003 (sc), vehicle: saline) is reported as 57 % of control and the T/C (dose: 4.0 mg/kg/injection, schedule: Q04DX003 (sc), vehicle: saline) is reported as 104 % of control. The T/C (dose: 8.0 mg/kg/injection, schedule: Q04DX003 (sc), vehicle: saline) was 81 % of control.
In the case of `OCC12COCN1COC2`, the T/C (dose: 75.0 mg/kg/injection, schedule: Q04DX003 (sc), vehicle: saline) is reported as 102 % of control and the T/C (dose: 150.0 mg/kg/injection, schedule: Q04DX003 (sc), vehicle: saline) is reported as 115 % of control.
`COc1ccc(-c2cc(C(=O)Nc3cc(C(F)(F)F)cc(C(F)(F)F)c3)c3ccccc3n2)cc1` was tested, and the T/C (dose: 150.0 mg/kg/injection, schedule: Q04DX003 (ip), vehicle: DMSO) was 75 % of control, the T/C (dose: 300.0 mg/kg/injection, schedule: Q04DX003 (ip), vehicle: DMSO) was 104 % of control and the T/C (dose: 600.0 mg/kg/injection, schedule: Q04DX003 (ip), vehicle: DMSO) was 68 % of control.
With `Cc1ccc(C2NC(=O)c3ccccc3N2)s1` (stereo not drawn) the T/C [10] was 106 % of control, the T/C [11] was 86 % of control and the T/C [12] was 82 % of control. For the same compound, the T/C (dose: 4800.0 mg/kg/injection, schedule: Q04DX003 (sc), vehicle: Klucel (hydroxypropylcellulose) (HPC)) was 94 % of control.
With `COC(=O)C12OCC34C(CC5C(C)=CC(=O)C(O)C5(C)C3C(O)C1O)OC(=O)C(OC(=O)CC(C)C)C24` (stereo not drawn) the T/C (dose: 3.0 mg/kg/injection, schedule: Q04DX003 (sc), vehicle: saline + alcohol) was 48 % of control.
In the case of `CCCCCC(=O)O[C@]1(C(C)=O)CC[C@H]2[C@@H]3CCC4=CC(=O)CC[C@]4(C)[C@H]3CC[C@@]21C`, the T/C [8] is reported as 91 % of control, the T/C [10] is reported as 112 % of control and the T/C [11] is reported as 103 % of control. For the same compound, the T/C [12] was 84 % of control.
With `COc1ccc2c(NCCCCCCCCNc3c4ccccc4nc4cc(OC)ccc34)c3ccccc3nc2c1` the T/C (dose: 2.0 mg/kg/injection, schedule: Q04DX003 (sc), vehicle: suspension in saline) was 96 % of control and the T/C (dose: 16.0 mg/kg/injection, schedule: Q04DX003 (sc), vehicle: suspension in saline) was 64 % of control.
For `CN1c2c(nc(N)[nH]c2=O)NCC1CCNc1ccc(C(=O)NC(CCC(=O)O)C(=O)O)cc1` (stereo not drawn), the T/C [13] was 82 % of control, the T/C [14] was 36 % of control and 41 % of control and the T/C (dose: 400.0 mg/kg/injection, schedule: Q01DX010 (sc), vehicle: saline) was 11 % of control and 36 % of control. For the same compound, the T/C (dose: 800.0 mg/kg/injection, schedule: Q01DX010 (sc), vehicle: saline) was 11 % of control and the T/C (dose: 1600.0 mg/kg/injection, schedule: Q01DX010 (sc), vehicle: saline) was 27 % of control.
